Results taken from patent publication US20070173496A1, “Novel polymorph E of Olanzapine and preparation of anhydrous non-solvated crystalline polymorphic Form I of 2-methyl-4(4-methyl-1-piperazinyl)-10H-thieno[2,3-b][1,5] benzodiazepine (Olanzapine Form I) from the polymorphic Olanzapine Form E” (priority 2006, published 2007).

What was measured:
[1] = color stability of Olanzapine Form I on exposure at room temperature / in air; assay type: physicochemical; conditions: Form I from Form E by rapid crystallization in methylene chloride-methanol and step-wise drying, at least 3 months
Excerpt: In another aspect of this invention the new poly-type Olanzapine Form E generated with rapid crystallization in methylene chloride-methanol along with step-wise drying techniques produces non-solvated anhydrous Form I of 2-methyl-4-(4-methyl-1-piperazinyl)-10H-thieno[2,3-b][1,5] benzodiazepine which is stable enough to be used commercially in pharmaceutical formulations.

[2] = commercially available Form I prepared by prior art methods (U.S. Pat. No. 5,229,382); cited from earlier work
[3] = solid-state stability of poly-type Form E at room temperature; assay type: physicochemical; conditions: step-wise drying converts it to Form I
Excerpt: The new poly-type E is stable at room temperature but when subjected to step-wise drying techniques results in substantially pure Olanzapine Form I.

Structure (SMILES)	color change during exposure at room temperature [1]	color change over time due to exposure in air [2]	stability at room temperature [3]
Cc1cc2c(s1)Nc1ccccc1N=C2N1CCN(C)CC1 [Olanzapine Form I, 2-methyl-4-(4-methyl-1-piperazinyl)-10H-thieno[2,3-b][1,5] benzodiazepine]	No color change	color is found to change over time	–
Cc1cc2c(s1)Nc1ccccc1N=C2N1CCN(C)CC1 [poly-type E, 2-methyl-4-(4-methyl-1-piperazinyl)-10H-thieno[2,3-b][1,5] benzodiazepine]	–	–	stable
